We go through two molecules from PMC2650736 (Drug metabolism and disposition: the biological fate of …, 2008).

As usually defined, the Cmax is the highest concentration seen after dosing. In general, Papp A→B refers to the apparent permeability from the apical to the basolateral side of a cell layer. A higher Papp A→B goes with fast passage. By half-life is commonly meant the time in which the quantity being followed falls by half.

Read-outs that look alike come from different tables or passages of the source. Some results are limits rather than exact numbers.

Series [1] is classed as in vivo, human. Particulars: for Cmax: read-out: Cmax, Geometric Mean (CV %).
Series [2] is described as follows: Midazolam absorptive permeability in Caco-2 cell monolayers. Particulars: human, apical to basolateral, midazolam 3 μM. The series is classed as in vitro ADME, human. On the technique in general: Caco-2 cells form a polarised layer with tight junctions and transporters.
Series [3] deals with Caco-2 cell monolayers. The series is described as above. The format is in vitro ADME, human.
Where [4] appears, read: CBJ, single oral 5 mg midazolam.
The mark [5] stands for this setting: water, single oral 5 mg midazolam.

For `OCc1ncc2n1-c1ccc(Cl)cc1C(c1ccccc1F)=NC2` [1'-Hydroxymidazolam, 1'-hydroxymidazolam], the “tmax [median (range)]” value in series [1] (CBJ (3 × 240 ml sweetened double-strength juice E), single oral 5 mg midazolam) is 2.0 (1.0−6.0) h. Also, in series [1] (setting [4]), the “AUC0-∞, Geometric Mean (CV %)” value is reported as 62 (25) nM●h; the “AUClast, Geometric Mean (CV %)” value is given as 55 (23) nM●h; the “t1/2 (terminal half-life), Geometric Mean (CV %)” value is recorded as 3.3 (19) h; the highest concentration (Cmax) is 10 nM. Besides, in series [1] (setting [5]), the Cmax came out at 33 nM; the “AUC0-∞, Geometric Mean (CV %)” value was 74 (37) nM●h; the “AUClast, Geometric Mean (CV %)” value is given as 69 (35) nM●h; the “t1/2 (terminal half-life), Geometric Mean (CV %)” value was 3.2 (35) h. In series [1] (single oral 5 mg midazolam), the “AUC0-∞, CBJ / Water Ratio [90% CI]” value is 0.84 [0.77−0.92]; the “AUClast, CBJ / Water Ratio [90% CI]” value was 0.80 [0.73−0.88]; the “Cmax, CBJ / Water Ratio [90% CI]” value is 0.32 [0.27−0.38]; the “t1/2, CBJ / Water Ratio [90% CI]” value is 1.04 [0.89−1.20]. The “tmax [median (range)]” value in series [1] (water, single oral 5 mg midazolam, 16 healthy volunteers) is given as 0.5 (0.25−1.5) h.
In series [2] (Caco-2, Papp, acidic pH (5.5)), `Cc1ncc2n1-c1ccc(Cl)cc1C(c1ccccc1F)=NC2` [midazolam] registered a Papp A→B at 3 μM of 21.9 ± 3.3 ×10⁻⁶ cm/s. The apparent permeability from apical to basolateral (Papp A→B) at 3 μM in series [2] (Caco-2, pH 7.4, Papp, control (plain incubation medium, pH 7.4)) worked out at 19.4 ± 1.8 ×10⁻⁶ cm/s. Also, the Papp A→B at 3 μM in series [2] (Caco-2, pH 7.4, Papp, high glucose (50 g/L, pH 7.4)) turned out to be 18.9 ± 2.8 ×10⁻⁶ cm/s. Besides, in series [3] (all time points, all conditions), the “total amount of midazolam recovered from apical and basolateral chambers” value is ≥ 80 % of the initial amount added to the apical chamber. The “amount of midazolam recovered from cell scrapings” value in series [3] (end of 4-hour experiment, all four conditions) is on record as 7−9 % of the initial amount added to the apical chamber. In series [1] (setting [4]), the “CI/F, Geometric Mean (CV %)” value is 54 (30) L/h and the “t1/2 (terminal half-life), Geometric Mean (CV %)” value is given as 2.9 (25) h. In series [1] (human, plasma, po, 5 mg), this molecule had a half-life of 2.9 h. For the same molecule, in series [1] (single oral 5 mg midazolam), the “AUC0-∞, CBJ / Water Ratio [90% CI]” value was 1.33 [1.17−1.50]; the “AUClast, CBJ / Water Ratio [90% CI]” value is 1.31 [1.18−1.46]; the “CI/F, CBJ / Water Ratio [90% CI]” value is 0.75 [0.67−0.85]; the “Cmax, CBJ / Water Ratio [90% CI]” value was 0.56 [0.49−0.64]. Further, the “t1/2, CBJ / Water Ratio [90% CI]” value in series [1] (single oral 5 mg midazolam) was 1.01 [0.86−1.19]. Moreover, in series [1] (setting [5]), the “CI/F, Geometric Mean (CV %)” value is given as 71 (33) L/h.
